# How the values were obtained:
# MI animal model [1] = test: Macrophage phenotype (CD68/Arg1 immunofluorescence) in cardiac muscle of MI animal model; format: in vivo, rat; conditions: MI rats, 2nd week after onset of myocardial infarction, FIG. 6
# Protocol: Specifically, a slide for myocardial infarction heart tissues was treated with an anti-CD68 antibody and an anti-Arg1 antibody, and a fluorescence image was visualized using a secondary antibody. Then, the tissues were observed under a confocal microscope with a magnification of 800 times. Since the macrophages in the tissues expressed CD68, the macrophages were detected using the anti-CD68 antibody. Also, since a marker used to distinguish the characteristics of the macrophages in the tissues was iNOS in the case of the inflammatory M1 macrophages and arginase 1 (Arg1) in the case of the anti-inflammatory M2 macrophages, the macrophages were stained with an anti-inflammatory marker Arg1 for macrophages in order to determine how many the phenotype of the macrophages in the heart was converted into the M2 type at the 2nd week after the onset of myocardial infarction.
# [2] = tested on: macrophage cell line RAW264.7; test: iNOS expression in LPS-stimulated macrophages, Western blotting; format: cell-based, mouse; conditions: RAW264.7, LPS 100 ng/mL, BIO 0, 1, 2.5 and 5 μM, FIG. 5
# Protocol: A mouse macrophage cell line RAW264.7 (Korean Cell Line Bank) was cultured in a DMEM broth supplemented with 10% fetal bovine serum, and lipopolysaccharide (LPS) was added at a concentration of 100 ng/mL to the culture broth to initiate inflammation of macrophages.
# [3] = tested on: cardiac fibroblasts (cFBs); test: BrdU cell proliferation assay, cardiac fibroblasts in cardiomyocyte/cardiac fibroblast co-culture; format: cell-based, rat
# Protocol: (§1) Hearts of two-day-old rats were removed and washed with physiological saline. Thereafter, left cardiac muscles were separated from the hearts in a sterilization cabinet, and microtomed into segments. These myocardial tissues were added to a collagenase enzyme solution, reacted at 37° C. while stirring, and then centrifuged to collect only the supernatant which were then kept in a cell culture flask. After an hour, cardiomyocytes which floated when the supernatant was transferred to a new culture flask were separated from cardiac fibroblasts attached to the bottom of the cell culture flask. At this point, both the cardiomyocytes and the cardiac fibroblasts were cultured in a Dulbecco's modified Eagle's medium (DMEM) supplemented with 10% fetal bovine serum (FBS) and then used for experiments.
# (§2) After 2 days and 5 days, the proliferation of cells was quantified.
# (§3) To determine the level of new DNA synthesis, a cell proliferation assay was performed by adding bromodeoxyuridine (BrdU) to a cell culture broth in advance to incorporate BrdU into DNAs of cells and performing a chromogenic reaction using an anti-BrdU antibody.
# Then, cells which were not stained with cardiac troponin I but stained with DAPI were regarded as cardiac fibroblasts and then counted.
# MI animal model [4] = test: Echocardiography of cardiac function in MI animal model; format: in vivo, rat; conditions: MI rats, 0.2 mg/body weight intra-abdominally daily
# Protocol: (§4) To induce the onset of myocardial infarction, first of all, rats weighing 200 to 230 g were anesthetized with ketamine (50 mg/kg) and xylazine (5 mg/kg), and the chests of the rats were shaved and disinfected. An anesthesia ventilator was installed to manage the airway of the rat, and the chest was incised to expose the heart. Then, a cardiac muscle was sutured in a region of the left anterior descending artery (LAD) to block a blood flow, thereby establishing an MI animal model.
# (§5) After two weeks, the rats were anesthetized, and subjected to echocardiography to examine the cardiac functions.
# In this case, the indices have the following meanings. • IVSd; thickness of interventricular septum (diastole) • IVSs; thickness of interventricular septum (systole) • LVIDd; thickness of left ventricular internal dimension (diastole) • LVIDs; thickness of left ventricular internal dimension (systole) • LVPWd; left ventricle posterior wall thickness (diastole) • LVPWs; left ventricle posterior wall thickness (systole) • EF; ejection fraction • FS; fractional shortening
# MI animal model [5] = test: Myocardial fibrosis by Masson's trichrom staining in MI animal model; format: in vivo, rat; conditions: MI rats, MI+BIO vs MI+vehicle, FIG. 4
# Protocol: as §4, §5
# To quantify myocardial fibrosis, the heart tissues were also removed, fixed with formalin, embedded in a paraffin block, and then microtomed into sections having a thickness of 10 μm. Thereafter, the sections were histologically stained using a Masson's trichrom method.
# cardiomyocytes (CMs) = test: BrdU cell proliferation assay, cardiomyocytes in cardiomyocyte/cardiac fibroblast co-culture; format: cell-based, rat; conditions: BIO 2.5 μM and 5 μM, after 2 days and 5 days, FIG. 1
# Protocol: as §1, §2, §3
# GSK3β = molecular target: T1, GSK3β (Rattus norvegicus, UniProt P18266); test: p-GSK3β expression in cardiac fibroblasts, Western blotting; format: cell-based; conditions: cardiac fibroblasts, 0, 0.25, 2.5 and 5 μM for 2 days, FIG. 7
# T1 construct: endogenous in cells; host or cells: cardiac fibroblasts (primary culture)
# Protocol: Since GSK3β was in an inert state when phosphorylated, an increase in expression level of p-GSK3β was determined using Western blotting in order to evaluate the inhibition of GSK3β.
# [6] = echocardiography after two weeks
# T1 sequence (P18266 whole entry): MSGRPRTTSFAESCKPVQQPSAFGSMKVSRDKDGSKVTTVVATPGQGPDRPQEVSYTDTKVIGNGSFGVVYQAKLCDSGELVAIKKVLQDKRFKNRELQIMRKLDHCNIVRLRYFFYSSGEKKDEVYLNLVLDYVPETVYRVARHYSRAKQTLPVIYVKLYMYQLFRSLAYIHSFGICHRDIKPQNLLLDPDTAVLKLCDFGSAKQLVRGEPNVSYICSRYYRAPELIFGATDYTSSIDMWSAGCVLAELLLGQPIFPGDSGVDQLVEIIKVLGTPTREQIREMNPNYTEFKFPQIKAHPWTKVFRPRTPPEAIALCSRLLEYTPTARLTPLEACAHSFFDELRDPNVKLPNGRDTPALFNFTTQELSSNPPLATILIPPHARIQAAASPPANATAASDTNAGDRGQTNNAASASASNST
SMILES,Arg1-expressing (anti-inflammatory M2 type) macrophages in the cardiac muscles (MI animal model [1]),expression of iNOS (inflammatory marker) [2],"BrdU (+) cFB/total cFB, proliferation rate of dividing cardiac fibroblasts ([3]; co-culture, BIO 2.5 μM and 5 μM, FIG. 2)","diastolic and systolic functions of the heart (MI animal model [4]; after two weeks, vs MI+saline)",EDV (MI animal model [4]; [6]),EF; ejection fraction (MI animal model [4]; [6]),ESV (MI animal model [4]; [6]),FS; fractional shortening (MI animal model [4]; [6]),IVSd; thickness of interventricular septum (diastole) (MI animal model [4]; [6]),IVSs; thickness of interventricular septum (systole) (MI animal model [4]; [6]),LVIDd; thickness of left ventricular internal dimension (diastole) (MI animal model [4]; [6]),LVIDs; thickness of left ventricular internal dimension (systole) (MI animal model [4]; [6]),LVPWd; left ventricle posterior wall thickness (diastole) (MI animal model [4]; [6]),LVPWs; left ventricle posterior wall thickness (systole) (MI animal model [4]; [6]),SV (MI animal model [4]; [6]),"fibrosis regions (blue), myocardial fibrosis (MI animal model [5])","BrdU (+) CM/total CM, proliferation rate of dividing cardiomyocytes (cardiomyocytes (CMs))","inhibitory effect on the proliferation of the cardiac fibroblasts ([3]; BIO 5 μM and 10 μM vs LiCl, same manner as Example 3, FIG. 8)","expression level of p-GSK3β (inert form), GSK3β inhibition (GSK3β)"
"O=C1Nc2cc(Br)ccc2/C1=C1/Nc2ccccc2/C1=N\O [BIO, (2′Z,3′E)-6-bromoindirubin-3′-oxime]",prevailed,lowered in a concentration-dependent manner,significantly decreased,well preserved,1.563 ± 0.308,41.313 ± 6.823,0.911 ± 0.251,18.262 ± 3.525,0.079 ± 0.013,0.084 ± 0.028,0.900 ± 0.066,0.736 ± 0.074,0.089 ± 0.023,0.115 ± 0.019,0.651 ± 0.116,significantly reduced,significantly increased,,
"[Cl-].[Li+] [LiCl, reference compound]",,,,,,,,,,,,,,,,,,not observed,increased
